These results are taken from patent US20260000620A1, “ORAL DOSAGE FORMS” (priority 2022, published 2026).

Structures are written as SMILES. Positions of bridges follow the written chain, without caps; N, C: chain ends. Residues, ends and D or L forms follow the SMILES beside them.

The conditions of series [1]: dog, in vivo, iv.
Experimental: (§1) A dog PK study with terlipressin capsules was carried out essentially as described in Example 2. The key differences are as follows:
(§2) Test article administration: Animals were fasted for at least 12 hours prior to dosing and through the first 4 hours of blood sample collection (food was returned within 30 minutes following collection of the last blood sample at the 4 hour collection interval).
(§3) Intravenous administration: Animals in Phase 1 (groups 1 and 2) received a single iv of glypressin of 0.04 or 0.2 mg terlipressin base (0.24 or 1.2 mL/animal, respectively). Dosing was performed by 1 minute slow injection via the cephalic vein, using a catheter.
(§4) Blood collection: Blood samples (approximately 3 mL/sample) were collected from the jugular vein in the following time points:
(§5) Blood samples were placed into tubes containing K2EDTA. The samples were centrifuged under refrigerated (2 to 8° C.) conditions within 30 minutes of sample collection and the resulting plasma was separated and split into two approximately equal aliquots. Each plasma sample was placed into pre-chilled tubes that were placed on dry ice until frozen at −60° to −90° C. Bioanalysis was performed for plasma concentrations of both terlipressin and LVP.
(§6) Bioanalysis of plasma samples was performed using a LC-MS/MS method for quantitation of terlipressin and [Lys8]—Vasopressin in Dog Plasma.
Another series can be described thus: in vivo. Conditions: beagle, dog, iv.

Experimental for in vivo: as §1, §2, §3, §4, §5, §6

By AUC(0-inf) is commonly meant total exposure, with the tail of the curve extrapolated. As a reminder, the AUC(0-t) is exposure summed from dosing to a finite time, without extrapolation to infinity. A higher AUC(0-t) goes with more exposure. Usually Cmax stands for the maximum level reached in the sampled fluid or tissue. A word on the Tmax: it is the time from dosing to the highest level. As usually defined, the half-life is the time in which the quantity being followed falls by half. A high value points to slow loss. As to `NCCCC[C@H](NC(=O)[C@@H]1CCCN1C(=O)[C@@H]1CSSC[C@H](NC(=O)CNC(=O)CNC(=O)CN)C(=O)N[C@@H](Cc2ccc(O)cc2)C(=O)N[C@@H](Cc2ccccc2)C(=O)N[C@@H](CCC(N)=O)C(=O)N[C@@H](CC(N)=O)C(=O)N1)C(=O)NCC(N)=O` [terlipressin, triglycyl lysine vasopressin] (H-GGGCYFQNCPKG-NH2; disulfide 4-9), the “increase of both LVP AUCs from 0.04 mg to 0.2 mg” value in series [1] is on record as 3.7 fold. Moreover, in the series “in vivo” (0.04 mg), the area under the curve AUC(0-inf) amounted to 1.77 ng·h/mL, the AUC(0-t) is 1.82 ng·h/mL, the concentration peaked (Cmax) at 12.6 ng/mL and the Tmax is 4.98 min. In the series “in vivo” (0.04 mg), this molecule gave a half-life of 4.44 min. For the same molecule, in the series “in vivo” (0.2 mg), the AUC(0-inf) was 9.14 ng·h/mL, the AUC(0-t) came out at 9.13 ng·h/mL, the peak concentration (Cmax) worked out at 59.1 ng/mL and the Tmax was 4.02 min. Moreover, in “in vivo” (0.2 mg), the half-life is 13.9 min.
